According to patent US20190233884A1 (University of Southern California, priority 2016, published 2019):
Where “and” joins values, the source holds several entries; their conditions need not be identical. Equal entries are not always repeated.

Tested on: patients with refractory metastatic colorectal cancer (mCRC)
Experiment: PFS, OS and disease control in the control cohort of refractory mCRC patients receiving regorafenib (n=52, Italy), by baseline characteristics and SNP genotype
Format: in vivo, human
Experimental: All patients underwent the treatment in salvage-line setting.
(§1) Patients in the control group received 160 mg regorafenib (Bayer, Leverkusen, Germany) once daily from day 1 to 21 every 4 weeks. Doses were adjusted based on haematological and non-haematological adverse events at the treating physician's discretion in accordance with the manufacturer's recommendations. The analyses were approved by the University of Southern California (USC) Institutional Review Board of Medical Sciences and conducted at the USC/Norris Comprehensive Cancer Center in accordance with the Declaration of Helsinki and Good Clinical Practice Guidelines.
(§2) Genomic DNA was extracted from peripheral whole blood in patients of all cohorts using the QIAmp Kit (Qiagen, Valencia, Calif., USA) according to the manufacturer's protocol (www.qiagen.com). The candidate SNPs were genotyped using PCR-based direct DNA sequence analysis by ABI 3100A Capillary Genetic Analyzer and Sequencing Scanner v1.0 (Applied Biosystems). Amplification of extracted DNA was carried out using both forward and reverse primers for each gene polymorphism as shown in Table 1. […] The investigators analyzing SNPs were blinded to the clinical data of the study patients.
The primary endpoint in this study was progression-free survival (PFS), and the secondary endpoints were overall survival (OS) and disease control rate (DCR). PFS was calculated from the date of starting treatment to the first observation of disease progression or death from any cause. If a patient had no disease progression or death, PFS was censored at the date of last follow up. OS was calculated from the date of starting treatment until the date of death from any cause or the date of the last follow-up, at which point OS was censored. The disease control rate (DCR) was defined as the proportion of patients who achieved a stable disease (SD) or […] according to RECISTv1.1. Chi-square test was used to examine the difference in baseline patient characteristics among the three cohorts. Allelic distribution of all SNPs by ethnicity for deviation from Hardy-Weinberg equilibrium and the allelic frequencies of SNPs were tested using the Chi-square tests with one degree of freedom. The associations between candidate SNPs and disease control, and toxicities were examined using contingency tables and Fisher's exact test. The associations of SNPs with PFS and OS were analysed using Kaplan-Meier curves and the log-rank test. Because the true mode of inheritance of candidate SNPs was not established yet, a codominant or dominant genetic model if appropriate was considered.
All patients underwent the treatment in salvage-line setting. […] In all patients, adverse events were graded according to the Common Terminology Criteria for Adverse Events, version 4.0.
as §1, with “events at treating physician's” for “events at the treating physician's”
as §2, with “tested” for “genotyped”, “Biosystems).” for “Biosystems). Amplification of extracted DNA was carried out using both forward and reverse primers for each gene polymorphism as shown in Table 1.”, “data.” for “data of the study patients.”
The primary endpoint in this study was progression-free survival (PFS), and the secondary endpoints were overall survival (OS) and disease control rate (DCR). […]

[1] = control cohort, OCT2 rs316019 C/A and A/A combined
[2] = control cohort, OCT2 rs316019 C/A and A/A combined vs C/C
[3] = control cohort, OCT2 rs316019 C/C
[4] = control cohort, adjusted for ECOG performance status and number of metastases
[5] = control cohort, hENT1 rs760370 A/A
[6] = control cohort, hENT1 rs760370 A/G
[7] = control cohort, hENT1 rs760370 A/G vs A/A
[8] = control cohort, hENT1 rs760370 Any G
[9] = control cohort, hENT1 rs760370 Any G vs A/A
[10] = control cohort, hENT1 rs760370 G/G
[11] = control cohort, hENT1 rs760370 G/G vs A/A
[12] = control cohort, hENT rs9394992 C/C
[13] = control cohort, hENT rs9394992 C/T
[14] = control cohort, hENT rs9394992 C/T and T/T combined
[15] = control cohort, hENT rs9394992 C/T and T/T combined vs C/C
[16] = control cohort, hENT rs9394992 T/T

For `CNC(=O)c1cc(Oc2ccc(NC(=O)Nc3ccc(Cl)c(C(F)(F)F)c3)c(F)c2)ccn1` [regorafenib], the “Disease Control Rate SD” value (control cohort, OCT2 rs316019 C/A) was 1 (14%), the “Overall Survival Median, months (95% CI)” value [1] was 5.3 (3.6, 9.6) months and the “Progression-free Survival Median, months (95% CI)” value [1] was 1.8 (1.5, 2.0) months. The “Overall Survival HR (95% CI) multivariate” value [2] was 0.90 (0.39, 2.09), the “Overall Survival HR (95% CI) univariate” value [2] was 0.79 (0.35, 1.75) and the “Progression-free Survival HR (95% CI) multivariate” value [2] was 1.50 (0.62, 3.61). For the same compound, the “Progression-free Survival HR (95% CI) univariate” value [2] was 1.00 (0.44, 2.25), the “Disease Control Rate PD” value [3] was 25 (61%) and the “Disease Control Rate SD” value [3] was 16 (39%). The “Overall Survival Median, months (95% CI)” value [3] was 3.3 (2.6, 7.9) months, the “Progression-free Survival Median, months (95% CI)” value [3] was 2.1 (1.7, 3.2) months and the “Overall Survival HR (95% CI) multivariate” value [4] was 0.80 (0.40, 1.61). The “Progression-free Survival HR (95% CI) multivariate” value [4] was 0.88 (0.45, 1.70), the “Disease Control Rate PD” value [5] was 15 (65%) and 13 (65%) and the “Disease Control Rate SD” value [5] was 7 (35%). The “Overall Survival Median, months (95% CI)” value [5] was 5.9 (4.5, 8.0) months and 5.9 (4.5, 5.0) months, the “Progression-free Survival Median, months (95% CI)” value [5] was 2.1 (1.8, 3.1) months and the “Disease Control Rate PD” value [6] was 11 (61%). The “Disease Control Rate SD” value [6] was 7 (39%), the “Overall Survival Median, months (95% CI)” value [6] was 5.7 (2.0, 8.9) months and the “Progression-free Survival Median, months (95% CI)” value [6] was 1.9 (1.6, 3.9) months. For the same compound, the “Overall Survival HR (95% CI) multivariate” value [7] was 0.95 (0.50, 1.90), the “Overall Survival HR (95% CI) univariate” value [7] was 1.25 (0.67, 2.35) and the “Progression-free Survival HR (95% CI) multivariate” value [7] was 1.08 (0.57, 2.08). For the same compound, the “Progression-free Survival HR (95% CI) univariate” value [7] was 1.26 (0.67, 2.37), the “Disease Control Rate PD” value [8] was 19 (66%) and the “Disease Control Rate SD” value [8] was 10 (34%). For the same compound, the “Overall Survival Median, months (95% CI)” value [8] was 4.1 (2.2, 7.8 ) months, the “Progression-free Survival Median, months (95% CI)” value [8] was 1.8 (1.5, 2.2) months and the “Overall Survival HR (95% CI) multivariate” value [9] was 1.01 (0.55, 1.88). For the same compound, the “Overall Survival HR (95% CI) univariate” value [9] was 1.22 (0.70, 2.13), the “Progression-free Survival HR (95% CI) multivariate” value [9] was 1.15 (0.61, 2.15) and the “Progression-free Survival HR (95% CI) univariate” value [9] was 1.25 (0.71, 2.20). The “Disease Control Rate SD” value [10] was 3 (27%), the “Overall Survival Median, months (95% CI)” value [10] was 2.4 (1.2, 9.1) months and the “PD, patients n (%)” value [10] was 8 (73%). For the same compound, the “Progression-free Survival Median, months (95% CI)” value [10] was 1.4 (0.4, 4.3) months, the “Overall Survival HR (95% CI) multivariate” value [11] was 1.11 (0.48, 2.56) and the “Overall Survival HR (95% CI) univariate” value [11] was 1.17 (0.55, 2.46). For the same compound, the “Progression-free Survival HR (95% CI) multivariate” value [11] was 1.57 (0.57, 4.35), the “Progression-free Survival HR (95% CI) univariate” value [11] was 1.24 (0.59, 2.59) and the “Disease Control Rate PD” value [12] was 14 (70%). The “Disease Control Rate SD” value [12] was 6 (30%), the “Overall Survival Median, months (95% CI)” value [12] was 4.4 (2.6, 6.0) months and the “Progression-free Survival Median, months (95% CI)” value [12] was 2.0 (1.2, 2.7) months. The “Disease Control Rate PD” value [13] was 16 (70%), the “Disease Control Rate SD” value [13] was 7 (30%) and the “Overall Survival Median, months (95% CI)” value [14] was 7.7 (3.7, 8.9) months. The “Progression-free Survival Median, months (95% CI)” value [14] was 1.9 (1.7, 3.9) months, the “Overall Survival HR (95% CI) multivariate” value [15] was 0.64 (0.32, 1.30) and the “Overall Survival HR (95% CI) univariate” value [15] was 0.57 (0.31, 1.05). The “Progression-free Survival HR (95% CI) multivariate” value [15] was 0.85 (0.46, 1.59), the “Progression-free Survival HR (95% CI) univariate” value [15] was 0.75 (0.42, 1.32) and the “Disease Control Rate PD” value [16] was 2 (33%). For the same compound, the “Disease Control Rate SD” value [16] was 4 (67%), the “Progression-free Survival Median, months (95% CI)” value (control cohort, per OCT2 rs316000 genotype (row), OCT2 rs316000 Any A genotype) was 1.8 (1.6, 2.8) months and the “Progression-free Survival Median, months (95% CI)” value (control cohort, per OCT2 rs316000 genotype (row), OCT2 rs316000 G/G genotype) was 2.1 (1.7, 3.1) months. The “Median OS” value (whole control cohort) was 5.3 months and the “Median PFS” value (whole control cohort) was 1.9 months.
